Structures can show the parent of a compound that is named as a salt.
How the values were obtained:
NK3 = biological target: T1, NK3 (Homo sapiens, UniProt P29371); experiment: Signal transduction (ST), intracellular Ca++ (FLIPR), NK3; format: cell-based; conditions: antagonist, read-out: NK3 pIC50 (converted)
T1 sequence (P29371 1-465): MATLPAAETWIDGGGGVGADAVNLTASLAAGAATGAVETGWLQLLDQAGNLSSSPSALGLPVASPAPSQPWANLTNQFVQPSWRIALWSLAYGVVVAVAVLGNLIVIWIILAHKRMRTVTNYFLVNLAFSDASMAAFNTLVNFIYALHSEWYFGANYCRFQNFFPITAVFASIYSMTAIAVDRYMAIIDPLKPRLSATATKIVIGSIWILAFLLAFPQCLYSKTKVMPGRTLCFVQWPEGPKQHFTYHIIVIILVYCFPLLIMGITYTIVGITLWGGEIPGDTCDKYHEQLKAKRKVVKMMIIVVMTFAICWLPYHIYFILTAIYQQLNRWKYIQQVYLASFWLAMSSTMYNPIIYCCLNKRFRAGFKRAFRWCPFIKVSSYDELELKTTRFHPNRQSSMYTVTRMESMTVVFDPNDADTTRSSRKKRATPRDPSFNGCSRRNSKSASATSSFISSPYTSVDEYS

NK1 = NK1 (Homo sapiens, UniProt P25103); experiment: Signal transduction (ST), intracellular Ca++ (FLIPR), functional NK1 antagonistic activity; format: cell-based; conditions: antagonist, read-out: NK1 pIC50 (converted)
Method in brief: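 Confluent cells were loaded with 2 μM Fluo3 for 1 h at 37° C, then washed into Krebs buffer pH 7.4 with 1.25 mM CaCl2 and 2.5 mM probenecid. Antagonists were preincubated 20 min at RT before agonist addition. Peak Ca++ transients were read by FLIPR, with EC50 or IC50 from sigmoidal non-linear regression.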

NK2 = biological target: T2, NK2 (Homo sapiens, UniProt P21452); experiment: Signal transduction (ST), intracellular Ca++ (FLIPR), NK2; format: cell-based; conditions: antagonist, read-out: NK2 pIC50 (converted)
T2 sequence (P21452 1-398): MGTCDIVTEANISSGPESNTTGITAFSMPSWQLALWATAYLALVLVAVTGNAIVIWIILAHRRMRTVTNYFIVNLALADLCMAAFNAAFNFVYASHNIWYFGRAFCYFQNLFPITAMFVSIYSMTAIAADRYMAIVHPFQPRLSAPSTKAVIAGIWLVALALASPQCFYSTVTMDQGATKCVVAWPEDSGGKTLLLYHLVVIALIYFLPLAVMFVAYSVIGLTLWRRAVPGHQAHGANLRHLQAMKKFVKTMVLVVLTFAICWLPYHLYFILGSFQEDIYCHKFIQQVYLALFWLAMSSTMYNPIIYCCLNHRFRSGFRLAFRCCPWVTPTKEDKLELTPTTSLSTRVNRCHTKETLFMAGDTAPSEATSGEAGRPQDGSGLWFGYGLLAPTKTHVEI

Chain of NK1 (P25103 whole entry): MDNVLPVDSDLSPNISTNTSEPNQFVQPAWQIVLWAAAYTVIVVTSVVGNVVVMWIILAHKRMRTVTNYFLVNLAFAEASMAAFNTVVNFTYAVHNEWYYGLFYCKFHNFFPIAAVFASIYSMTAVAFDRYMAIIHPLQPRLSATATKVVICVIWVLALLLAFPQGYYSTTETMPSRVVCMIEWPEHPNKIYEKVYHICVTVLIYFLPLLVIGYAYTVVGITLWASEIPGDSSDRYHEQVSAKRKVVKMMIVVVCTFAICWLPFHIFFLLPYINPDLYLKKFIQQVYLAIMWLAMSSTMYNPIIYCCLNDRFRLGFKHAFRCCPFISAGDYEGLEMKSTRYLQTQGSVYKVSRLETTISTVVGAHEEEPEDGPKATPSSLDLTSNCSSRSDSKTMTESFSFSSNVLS

melting point | IC50 (NK3) | IC50 (NK1) | IC50 (NK2) | Compound
132 °C |  |  |  | O=C(c1cc(C(F)(F)F)cc(C(F)(F)F)c1)N1CCC(N2CCC3(CC2)CCN(S(=O)(=O)c2cccs2)CC3)CC1Cc1ccccc1 (stereo not shown) (as salt: oxalate) [Compound 92]
160 °C | 1510 nM | 37.2 nM | 1100 nM | O=C(C1CC1)N1CCC2(CC1)CCN(C1CCN(C(=O)c3cc(C(F)(F)F)cc(C(F)(F)F)c3)C(Cc3ccccc3)C1)CC2 (stereo not shown) [Compound 3]
 | 3800 nM | 631 nM | 3550 nM | O=C(c1ccoc1)N1CCCC2(CCCN(C3CCN(C(=O)c4cc(C(F)(F)F)cc(C(F)(F)F)c4)C(Cc4ccccc4)C3)C2)C1 (stereo not shown) [Compound 212]

Second part, the compound before the results:

Compound | melting point | IC50 (NK3) | IC50 (NK1) | IC50 (NK2)
O=C(c1cc(C(F)(F)F)cc(C(F)(F)F)c1)N1CCC(N2CCC3(CCN(Cc4ccccc4)CC3)CC2)CC1Cc1ccccc1 (stereo not shown) (as salt: hydrochloric acid salt) [Compound 5] | 183 °C |  |  | 
CC(C)(C)OC(=O)N1CCC2(CC1)CCN(C1CCN(C(=O)c3cc(C(F)(F)F)cc(C(F)(F)F)c3)C(Cc3ccc(Cl)c(Cl)c3)C1)CC2 (stereo not shown) [Compound 130] | 80 °C |  |  | 

— US7544694B2, “Substituted diaza-spiro-[5.5]-undecane derivatives and their use as neurokinin antagonists” (Janssen Pharmaceutica N.V., priority 2004, dated 2009)
